Experimental data taken from patent US20150050410A1, “COMPOUNDS, COMPOSITIONS, AND METHODS FOR MODULATING SWEET TASTE” (Chromocell Corporation, priority 2013, published 2015).

Tested on: perception of sweet taste, in an aqueous solution, in humans
Assay: Inherent sweetness assessment, difference from control "sip and spit" method
Assay type: in vivo
Conditions: no sweetener
Description: The taste test panelists used in the Examples 1-3 were selected using a sensory acuity screening program. Candidate taste panelists were recruited, with prescreening and personal interviews, and were assessed and for their ability to detect, recognize and differentiate basic taste attributes or mixtures thereof as part of a standardized acuity test. This included basic tastes of sweet, sour, salty, bitter and umami, as well as having the capacity to focus on specific aspects of sensory character such as ranking the various tastes perceived and identifying the basic tastes presented at threshold levels.
The aqueous sucrose solutions were prepared by adding, sucrose (by weight), to water to achieve the desired concentration.
Compounds were first prepared as a 500-fold concentrated stock solution in 100% ethanol. These concentrated stocks were then added to water to result in a final ethanol concentration of 0.2%. The control (including positive control) samples were also normalized to 0.2% ethanol. This level of ethanol was not seen to contribute any perceived sweetness.
The intrinsic effect of test compounds on the perception of sweet taste, in an aqueous solution, in humans was evaluated using a difference from control “sip and spit” method employing a verbal category scale.
In this method, panelists (n=12) evaluate one pair of samples at a time—one sample contains water plus compound (i.e. test) while the other contains water without compound (i.e. control). Panelists were instructed to first taste the un-blinded control followed by the test sample and asked to rate the size of sweetness difference between the test and control sample, using a 6 point verbal category scale:
Verbal Category Scale • No difference • Slight difference • Slight/moderate difference • Moderate difference • Moderate/large difference • Very large difference […]

COc1ccc(C2CC(=O)c3c(O)cccc3O2)cc1O (racemic) [Compound 1, 5-hydroxy-2-(3-hydroxy-4-methoxyphenyl)chroman-4-one]
Correlated Inherent Sweetness Assessment (compound 10 ppm in water): 0% sucrose
Correlated Inherent Sweetness Assessment (compound 15 ppm in water): 0%-0.5%
Correlated Inherent Sweetness Assessment (compound 25 ppm in water): 0%-0.5%
